Measured values as given in patent publication US20210299116A1, “METHODS FOR REDUCING ABNORMAL SCAR FORMATION” (CORNELL UNIVERSITY, priority 2018, published 2021).
Entries after “also recorded” stand apart in the source; their conditions may differ.

Experiments:
HLF cells (fibroblasts) = test: in vitro gel contraction assay; type: cell-based; details: for TGF-β induced fibroblast contracture (gel contraction): TGF-β + RXD, 48 hour incubation
Protocol: Evaluation of fibroblasts contractility was performed as previously described by […] et al (Bio-protocol 8(18): e3021, 2018). Briefly, HLF cells are resuspended in 1 mg/ml collagen and then pipetted into 24 well plates. Collagen is allowed to solidify for 30 minutes at room temperature. Media (500 μl) is then added to each of the wells and the gels are dissociated from the walls of the well. Gels are treated and allowed to incubate for 48 hours at 37° C. and 5% CO2. After the 48 hour incubation, gels are stained with crystal violet stain in order to better visualize contraction. Images are analyzed using Image J software and the fold change compared to a no cell control is determined.

[1] = test system: smooth muscle actin (SMA) in fibroblasts; test: TGF-β induced smooth muscle actin (SMA) in fibroblasts (Western blot, immunohistochemistry); type: cell-based; details: TGF-β stimulated fibroblasts
Description: Scar contracture is a painful aspect of hypertrophic scarring due to increased SMA in the fibroblasts. During the inflammatory phase of wound healing, the cytokine transforming growth factor β (TGF-β) is secreted and can activate fibroblasts to produce SMA.

[2] = test system: incisional wound in C57bl/6 mice; test: rodent incisional wound model, incision sutured with silk imbedded with drug; type: in vivo, mouse
Description: As there are no murine models for hypertrophic or keloid scarring, the inventors relied on a classic rodent incisional wound model consisting of a longitudinal para-vertebral incision 1-2 cm long through the entire thickness of the skin and cutaneous muscle. Wounds (WD) and size matched pieces of dorsal dermis (CTR) were excised and processed for light and polarized light microscopy: fixation, embedding, sectioning and stained with hematoxylin-eosin (inflammatory cells) and Gomori Trichrome (collagen staining), tensile strength measurements and qPCR.
In some experiments, a drug was delivered locally and directly to the wound. In some embodiments, the drug was impregnated in the wound closure material, silk suture. In some experiments, the drug was eluted into the wound during wound healing leading to closure and scar formation. Wound healing was monitored over 14 days.
Wounds (WD) and size matched pieces of dorsal dermis (CTR) were excised and processed for light microscopy: fixation, embedding, sectioning and stained with hematoxylin-eosin (inflammatory cells) and Gomori Trichrome (collagen staining).
Using wild type C57bl/6 mice, wound healing experiments were next performed where the incision was sutured with silk imbedded with ketotifen, a mast cell stabilizer. This way the drug could be delivered continuously and locally during wound healing.

[3] = 14 days post-incision, C57bl/6 mice, ketotifen-impregnated silk vs untreated silk

SMILES | fibroblast gel contraction, change from control (HLF cells (fibroblasts); RXD added alone, vs control) | TGF-β induced fibroblast contracture (gel contraction) (HLF cells (fibroblasts)) | TGF-β induced fibroblast contracture (gel contraction) (HLF cells (fibroblasts); listed as Roxadustat) | SMA staining of fibroblasts (immunohistochemistry) [1] | abundance of TGF-β induced SMA in fibroblasts (Western blot) [1] | abundance of TGF-β induced SMA in fibroblasts (Western blot) ([1]; listed as Roxadustat) | relative abundance of newly synthesized collagen III mRNA in excised wound scar (q-PCR) ([2]; 14-day, drug group compared to untreated) | inflammatory response to the incisional wound (immune cells in H&E stained scar) ([2]; 7 days post-incision, C57bl/6 mice, ketotifen eluted from silk suture vs untreated wound) | scar collagen content (Gomori trichrome stain) [2, 3] | scar width (Gomori trichrome stain) [2, 3] | tensile strength of the scar (peak tension, tensitometry) ([2]; 14 days post-incision, ketotifen-treated vs untreated mice) | newly synthesized collagen III in wound scar (birefringence microscopy) ([2]; ketotifen eluted from suture vs suture alone)
Cc1nc(C(=O)NCC(=O)O)c(O)c2ccc(Oc3ccccc3)cc12 [RXD, N-[(4-hydroxy-1-methyl-7-phenoxyisoquinolin-3-yl)carbonyl]glycine] | significant changes | inhibited | significantly reduces | inhibited | inhibited | significantly reduces | – | – | – | – | – | –
CN1CCC(=C2c3ccccc3CC(=O)c3sccc32)CC1 [ketotifen] | – | – | – | – | – | – | significantly less | lessens the inflammatory response | decreases | significantly less; also recorded: decreases | not affected | less newly synthesized collagen III; also recorded: decreases newly synthesized collagen (III)
